Reference: PubChem BioAssay (NCI)
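The compound was tested at five concentrations on cells cultured in 96-well plates, with a 48-hour exposure period. At the GI50, growth is halved. The concentration for full growth arrest is given as TGI.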

Columns and labels:
Experiment in all cases: DTP human tumour cell line panel, 48 h
T-47D breast = test system: T-47D breast
MDA-MB-435 = test system: MDA-MB-435
HS 578T breast = test system: HS 578T breast
BT-549 breast = test system: BT-549 breast
DU-145 prostate = test system: DU-145 prostate
MDA-N = test system: MDA-N
SNB-78 CNS = test system: SNB-78 CNS
HOP-18 NSCLC = test system: HOP-18 NSCLC
RXF-631 renal = test system: RXF-631 renal

Row | Compound | TGI (T-47D breast) [µM] | TGI (MDA-MB-435) [µM] | TGI (HS 578T breast) [µM] | TGI (BT-549 breast) [µM] | TGI (DU-145 prostate) [µM] | TGI (SNB-78 CNS) [µM] | TGI (HOP-18 NSCLC) [µM] | further results
1 | CC(=O)Nc1ccc(C(=O)NN2C(=O)CSC2c2ccccc2)cc1 (stereo unspecified) | > 100 | > 100 | > 100 | 83 | > 100 |  |  | TGI (MDA-N): > 100 µM
2 | CCNC(=O)O/N=C1/C=C2CC[C@@H]3C(CC[C@@]4(C)C3CC[C@@H]4OC(=O)NCC)[C@@]2(C)CC1 (stereo partly specified) |  |  |  |  |  | 9.3 |  | 
3 | O=C1OC(c2ccccc2)=N/C1=C\c1ccc(N(CCCl)CCCl)cc1 | > 84.8 | > 100 | > 100 | > 100 | > 100 |  |  | TGI (MDA-N): > 100 µM
4 | O=C(COC(=O)[C@H](C[Se][Se]C[C@H](NC(=O)c1ccc(Br)cc1F)C(=O)OCC(=O)c1ccc(F)cc1)NC(=O)c1ccc(Br)cc1F)c1ccc(F)cc1 | 4.08 | 4.3 | 1.31 | 1.31 | 1.08 |  |  | GI50 (T-47D breast): 1.41 µM; GI50 (MDA-MB-435): 1.89 µM; GI50 (HS 578T breast): 0.298 µM; GI50 (BT-549 breast): 0.603 µM; GI50 (DU-145 prostate): 0.385 µM
5 | O=[N+]([O-])c1cccc(C2=NOC3CCCC23)c1 (stereo unspecified) |  |  |  |  |  | > 100 | > 100 | 
6 | O=C(Nc1ccccc1)Oc1ccccc1C1CCCCC1 |  |  |  |  |  | 54.9 | 68.5 | 
7 | Cn1nc(-c2ccccc2)c(C(=O)/C=C/c2ccccc2)c(N2CCCC2)c1=O |  |  |  |  |  |  | 47.1 | TGI (RXF-631 renal): > 100 µM
8 | CC1=CC(=O)N2[C@H](OC[C@@H]2C(C)C)O1 |  |  |  |  |  |  | > 100 | TGI (RXF-631 renal): > 100 µM
9 | CCn1c(SC)nnc1-c1cc2c([nH]c3ccccc32)c(-c2cccc(O)c2)n1 | 22.5 | 0.851 | 9.76 | 6.31 | 24.9 |  |  | GI50 (T-47D breast): 1.78 µM; GI50 (MDA-MB-435): 0.248 µM; GI50 (HS 578T breast): 1.97 µM; GI50 (BT-549 breast): 1.68 µM; GI50 (DU-145 prostate): 4.46 µM
10 | COc1cccc2c(Nc3ccc(C(=O)NCCN4CCNCC4)cc3)cc(-c3ccccc3)nc12 | > 100 | > 100 | > 100 | > 100 | > 100 |  |  | GI50 (T-47D breast): 29.4 µM; GI50 (MDA-MB-435): 35.9 µM; GI50 (HS 578T breast): 46.9 µM; GI50 (BT-549 breast): 35.1 µM; GI50 (DU-145 prostate): 71 µM
11 | CCc1c[nH]c2ncnc(N3CC[C@](N)(CNC(=O)c4ccc(F)cc4F)C3)c12 | 11.1 | > 79.7 | 24.3 | 18.1 | > 100 |  |  | GI50 (T-47D breast): 0.203 µM; GI50 (MDA-MB-435): 12.8 µM; GI50 (HS 578T breast): 0.513 µM; GI50 (BT-549 breast): 0.797 µM; GI50 (DU-145 prostate): 18.3 µM
12 | CC(=O)OC1CCC2(C)C(=CCC3C4CC(CN5CC5)C(=O)C4(C)CCC32)C1 (stereo unspecified) | 2.7 | 28.4 | 65.8 | 22.9 | 20.4 |  |  | GI50 (T-47D breast): 0.914 µM; GI50 (MDA-MB-435): 14.8 µM; GI50 (HS 578T breast): 20.4 µM; GI50 (BT-549 breast): 10.4 µM; GI50 (DU-145 prostate): 8.29 µM
13 | CN(C)c1ccc(/C=C2\Cc3ccccc3C2=O)cc1Br |  |  |  |  |  | > 100 |  | 
14 | Brc1ccc2c(c1)-c1ccccc1C1=NCCN12 | 18.4 | 2.45 | 12 | 6.07 | 10.9 |  |  | GI50 (T-47D breast): 2.85 µM; GI50 (MDA-MB-435): 1.06 µM; GI50 (HS 578T breast): 2.8 µM; GI50 (BT-549 breast): 1.88 µM; GI50 (DU-145 prostate): 1.09 µM
15 | CC1CC2C(=O)N(c3ccccc3)C(=O)C2c2[nH]c3ccccc3c21 (stereo unspecified) |  |  |  |  |  | > 100 |  | TGI (RXF-631 renal): > 100 µM
16 | O=[N+]([O-])C1(CO)COC(CCc2ccccc2)OC1 (stereo unspecified) |  |  |  |  |  |  | > 100 | 
17 | Cn1ncc2c(c1=O)Nc1ccccc1S2(=O)=O |  |  |  |  |  | > 100 | > 100 | 
18 | NC1CC(n2ccc(=O)[nH]c2=O)OC1C(O)CO (stereo unspecified) |  |  |  |  |  |  | > 100 | TGI (RXF-631 renal): > 100 µM
19 | COC(=O)c1ccccc1NCc1cc(O)ccc1O | 31.8 | 34.2 | 61.5 | 15 | > 100 | 66.6 | 27.6 | TGI (MDA-N): 31.8 µM
20 | NC(=O)NC(=O)C1CCC(=O)N1S(=O)(=O)c1ccc(Cl)cc1 (stereo unspecified) |  |  |  |  |  |  | > 100 | TGI (RXF-631 renal): > 100 µM
21 | CCCNc1ncnc2c1cnn2C |  |  |  |  |  | > 100 | > 100 | 
22 | Cc1c(N)nc(C2CC(=O)N2CC(N)C(N)=O)nc1C(=O)NC(C(=O)NC(C)C(O)C(C)C(=O)NC(C(=O)NCCc1nc(-c2nc(C(=O)NCCNCC(C)O)cs2)cs1)C(C)O)C(OC1OC(CO)C(O)C(O)C1OC1OC(CO)C(O)C(OC(N)=O)C1O)c1cnc[nH]1 (stereo unspecified) | > 5 | 36.4 | 50 | > 50 | 37.6 | > 100 | > 100 | TGI (MDA-N): > 50 µM
23 | CCOC(=O)Oc1ccc2[nH]c3c(C)cc(N)c(C)c3c2c1 |  |  |  |  |  | > 100 | > 100 | 
24 | CCOC(=O)/C(=C/c1ccc[nH]1)P(=O)(OCC)OCC |  |  |  |  |  | > 100 | > 100 | TGI (RXF-631 renal): > 100 µM
25 | CC(=O)OCC1OC(OC(C)=O)C(NC#N)C(OC(C)=O)C1OC(C)=O (stereo unspecified) |  |  |  |  |  |  | > 100 | 
26 | COc1cc([C@H]2c3cc(O)c(OC)cc3C[C@]3(O)[C@@H]2CO[C@@H]3O)ccc1O | > 100 | > 100 | > 100 | > 100 | > 100 |  |  | TGI (MDA-N): > 100 µM
27 | Cc1nc(-c2cccnc2)sc1C(=O)/C=C/c1ccc(Cl)cc1Cl |  |  |  |  |  | > 100 | > 100 | 
28 | CCOC(=O)C1=C(O)c2c(OC)ccc(OC)c2C(=O)C1=O |  |  |  |  |  | > 100 | > 100 | 
29 | Cc1cc2c(SCc3ccccc3Cl)nc(N)nc2nc1C | > 100 | > 100 | > 100 | > 100 | > 100 |  |  | TGI (MDA-N): > 100 µM
30 | O=C1C(=O)c2c(ccc3ccccc23)-c2ccccc21 | 3.96 | 3.52 | 6 | 4.62 | 2.73 |  |  | GI50 (T-47D breast): 1.75 µM; GI50 (MDA-MB-435): 1.59 µM; GI50 (HS 578T breast): 2.05 µM; GI50 (BT-549 breast): 2.05 µM; GI50 (DU-145 prostate): 1.4 µM
